The numbers were not newly measured in patent US20040170686A1, “Suspension vehicle for coated drug particles” (priority 2003, published 2004), which cites them from elsewhere.

For this series, the system named is gram-positive organisms. To be noted: gram-positive organisms incl. Staphylococcus, Streptococcus, Enterococcus, Bacillus, Corynebacterium.

Take `CC(=O)NC[C@H]1CN(c2ccc(N3CCOCC3)c(F)c2)C(=O)O1` [Linezolid, linezolid]: the antibacterial activity entry is reported as “strong antibacterial activity”.
